{"source": "patent US20090214607A1", "about": "“Topical use of teprenone” (SEDERMA, priority 2005, published 2009)", "key": {"[1]": {"assay": "Lipid peroxidation of liposomes using H2O2+FeCl2", "type": "biochemical", "details": "for Variation of peroxydation: vs negative control", "method": "(§1) In order to determine the action of teprenone as per the invention, the effect of the active substance on the lipid peroxidation of liposomes was analyzed. The liposomes were used to model cutaneous lipids.\nIn this method, liposomes are exposed to the test compound and a Fenton oxidative system. The peroxidation is determined by spectrophotometry. Trolox, a known anti-free radical agent, is used as the positive control at the same molar concentration as a teprenone."}, "[2]": {"assay": "Lipid peroxidation of liposomes using UVA radiation", "type": "biochemical", "details": "UVA induced, vs negative control", "method": "as §1\nIn this method, liposomes are exposed to the test compound and then to UV A radiation. Peroxidation is determined by spectrophotometry at 233 nm."}, "Thioredoxin": {"system": "Thioredoxin", "assay": "Thioredoxin in cellular supernatant of human fibroblasts (ELISA), with or without UVA", "type": "cell-based", "details": "for Thioredoxin rate in cellular supernatant: 10^−3%", "method": "Normal human fibroblasts were tested to ascertain whether exposure to teprenone would stimulate thioredoxin expression in the cellular supernatants.\nHuman fibroblasts (FHN) in culture were irradiated with UVA (4 and 6 J/cm^2) or not irradiated (control). 24 h before the irradiation, these cells were grown without or with teprenone (GGA at 10^−3%). After irradiation, each case received the same medium (with or without GGA) as before irradiation. Incubations of 24 or 48 h with these fresh mediums were made. Thioredoxin in the cellular supernants was estimated using ELISA method. The results obtained are recapitulated in Table 3"}, "Hsp70": {"system": "Hsp70", "assay": "Hsp70 immunolabeling in UVB-irradiated human skin explants", "type": "cell-based", "details": "for Number of Hsp70 positive cells/cm: UVB 2 J/cm2, n = 3", "from_the_text": "Heat Schock proteins (Hsp) are cellular protective molecules which contribute to the correct proteinic folding, thus preserving the protein activity. Hsp 27 is a protective chaperone protein very present in the keratinocytes at the basal state. In situation of UV stress, cell increases its rate of protection and Hsp 27 is strongly overexpressed. Hsp70 is a chaperone protein less expressed in a basal state but induced in response to the UV, thermics, mechanics or infectious stress.\nHuman skin explants are treated in a similar way to the previous experiment (protection on the catalase activity): taken from a plastic surgery, they are cultivated for 48 h in the presence or not, for control, of teprenone (or trolox) at various concentrations, then irradiated or not using a source UVB (2 J/cm2). After irradiation skin explants were post-treated (24 h) or not with teprenone (or trolox) at the same concentrations.\nExplants were embedded in OCT, sectioned using a freezing microtome, and slide mounted. The mounted specimens were immunolabeled with anti-human Hsp antibody."}, "IL8": {"system": "IL8", "assay": "IL8 in supernatant of γ-irradiated NHEK cells (ELISA)", "type": "cell-based, human", "details": "for decrease of IL8: vs irradiated control; for expression of IL8: γ-irradiation 5 Gγ, 4 days", "method": "In order to determine the action of teprenone as per the invention, the effect of GGA on the IL8 and VEGF expression was investigated in the supernatants of irradiated (with 5 Gy) NHEK cells. After γ-irradiation, NHEK cells are treated during 4 days with or without GGA at differents concentrations. The amount of IL8 and VEGF present in the cells supernatant is determined with ELISA method."}, "[3]": {"system": "human primary keratinocytes", "assay": "Gene expression profile by DNA array (CodeLink Whole Genome bioarray)", "type": "cell-based", "method": "Human primary keratinocyte cultures were prepared and incubated in the presence or absence of teprenone. The culture supernatants were withdrawn and the cell monolayers frozen at −80° C. The un-thawed monolayers were exposed to lysis buffer and the cell RNA extracted using a commercially-available kit (Roche kit V6: total RNA extraction). Solvent controls underwent the same extraction process in parallel. The expression profiles of the gene sequences were determined using a CodeLink Whole Genome bioarray for each sample of purified RNA. The values obtained were normalized relative to the controls."}}, "data": [{"smiles": "CC(=O)CCC=C(C)CCC=C(C)CCC=C(C)CCC=C(C)C", "note": "[Teprenone, 6,10,14,18-tetramethyl-5,9,13-nonadecatetren-2-one]", "values": [{"measurement": "Variation of peroxydation", "setting": "[1]; concentration 3 · 10^−2%", "result": "−75", "unit": "%"}, {"measurement": "Variation of peroxydation", "setting": "[1]; concentration 3 · 10^−3%", "result": "−26", "unit": "%"}, {"measurement": "Variation of peroxydation", "setting": "[1]; concentration 3 · 10^−4%", "result": "−16", "unit": "%"}, {"measurement": "decrease in peroxidation", "setting": "[1]; concentration 3.10^−2%", "result": 75, "unit": "%"}, {"measurement": "Variation of peroxydation", "setting": "[1]; concentration 10^−2%", "result": "−39", "unit": "%"}, {"measurement": "Variation of peroxydation", "setting": "[1]; concentration 10^−3%", "result": "−20", "unit": "%"}, {"measurement": "Variation of peroxydation", "setting": "[2]; concentration 3 · 10^−2%", "result": "−77", "unit": "%"}, {"measurement": "Variation of peroxydation", "setting": "[2]; concentration 3 · 10^−3%", "result": "−10", "unit": "%"}, {"measurement": "Variation of peroxydation", "setting": "[2]; concentration 3 · 10^−4%", "result": "−22", "unit": "%"}, {"measurement": "Variation of peroxydation", "setting": "[2]; concentration 10^−2%", "result": "−52", "unit": "%"}, {"measurement": "Variation of peroxydation", "setting": "[2]; concentration 10^−3%", "result": "−12", "unit": "%"}, {"measurement": "Thioredoxin rate in cellular supernatant", "setting": "Thioredoxin; UVA 4 J/cm^2, incubation 24 h", "result": 24.3, "unit": "ng/mg protein"}, {"measurement": "Thioredoxin rate in cellular supernatant", "setting": "Thioredoxin; UVA 4 J/cm^2, incubation 48 h", "result": 32.4, "unit": "ng/mg protein"}, {"measurement": "Thioredoxin rate in cellular supernatant", "setting": "Thioredoxin; UVA 6 J/cm^2, incubation 24 h", "result": 43.7, "unit": "ng/mg protein"}, {"measurement": "Thioredoxin rate in cellular supernatant", "setting": "Thioredoxin; UVA 6 J/cm^2, incubation 48 h", "result": 59.2, "unit": "ng/mg protein"}, {"measurement": "Thioredoxin rate in cellular supernatant", "setting": "Thioredoxin; not irradiated, incubation 24 h", "result": 11.6, "unit": "ng/mg protein"}, {"measurement": "Thioredoxin rate in cellular supernatant", "setting": "Thioredoxin; not irradiated, incubation 48 h", "result": 28.5, "unit": "ng/mg protein"}, {"measurement": "increase of thioredoxin rate in the cellular supernatant", "setting": "Thioredoxin; 24 h incubation, 4 J/cm^2", "result": "+30%"}, {"measurement": "increase of thioredoxin rate in the cellular supernatant", "setting": "Thioredoxin; 24 h incubation, 6 J/cm^2", "result": "+40%"}, {"measurement": "increase of thioredoxin rate in the cellular supernatant", "setting": "Thioredoxin; 24 h incubation, without irradiation", "result": "+60%"}, {"measurement": "increase of thioredoxin rate in the cellular supernatant", "setting": "Thioredoxin; 48 h incubation, 4 J/cm^2", "result": "+50%"}, {"measurement": "increase of thioredoxin rate in the cellular supernatant", "setting": "Thioredoxin; 48 h incubation, 6 J/cm^2", "result": 40, "unit": "%"}, {"measurement": "increase of thioredoxin rate in the cellular supernatant", "setting": "Thioredoxin; 48 h incubation, non irradiated", "result": "+150%"}, {"measurement": "Hsp70: Protection vs. irradiated (%)", "setting": "Hsp70; 0.05 mM", "result": 66, "unit": "%"}, {"measurement": "Hsp70: Protection vs. irradiated (%)", "setting": "Hsp70; 0.1 mM", "result": 100, "unit": "%"}, {"measurement": "Hsp70: Protection vs. irradiated (%)", "setting": "Hsp70; 0.1 mM, listed as GGA", "result": 100, "unit": "%"}, {"measurement": "Number of Hsp70 positive cells/cm", "setting": "Hsp70; 0.05 mM", "result": 130, "unit": "cells/cm"}, {"measurement": "Number of Hsp70 positive cells/cm", "setting": "Hsp70; 0.1 mM", "result": 40, "unit": "cells/cm"}, {"measurement": "decrease of IL8", "setting": "IL8; 1.10^−4%", "result": "−67", "unit": "%"}, {"measurement": "decrease of IL8", "setting": "IL8; 3.10^−5%", "result": "−50", "unit": "%"}, {"measurement": "expression of IL8", "setting": "IL8; 1 · 10^−4%", "result": 2.12, "unit": "pg/10^5 cells"}, {"measurement": "expression of IL8", "setting": "IL8; 3 · 10^−5%", "result": 3.25, "unit": "pg/10^5 cells"}, {"measurement": "expression of CBX5/HP1", "setting": "[3]; 24 hour period", "result": "jointly activated"}, {"measurement": "expression of CDK2", "setting": "[3]; 24 hour period", "result": "jointly activated"}, {"measurement": "expression of ELAVL1", "setting": "[3]; 24 hour period", "result": "activation"}, {"measurement": "expression of ERBIN gene", "setting": "[3]; 24 hour period", "result": "up-regulated"}, {"measurement": "expression of PTPRF-interacting gene", "setting": "[3]; 24 hour period", "result": "up-regulated"}, {"measurement": "expression of SERTAD3", "setting": "[3]; 24 hour period", "result": "activated"}, {"measurement": "expression of gene SCLY", "setting": "[3]; 24 hour period", "result": "significantly up-regulated"}, {"measurement": "expression of gene for heat shock protein HSP 27", "setting": "[3]; 24 hour period", "result": "induction"}, {"measurement": "expression of gene for heat shock protein HSP B3", "setting": "[3]; 24 hour period", "result": "induction"}, {"measurement": "genes activated, effect on cell lipid content", "setting": "[3]; cholesterol efflux and fatty acid synthesis", "result": 6, "unit": "genes"}]}]}
